{
  "source": "patent US8207181B2",
  "about": "“Substituted dihydro, trihydro and tetrahydro cycloalkyloxazolopyrimidinones, preparation and use thereof” (Sanofi, priority 2008, dated 2012)",
  "origin": "cited, not measured here",
  "key": {"[1]": {"system": "animal models", "conditions": "some animal models"}, "[2]": {"system": "mice"}, "[3]": {"system": "DBA/2 mice"}, "[4]": {"system": "healthy human subjects", "conditions": "pretreatment"}, "[5]": {"system": "pentylenetetrazole- and picrotoxin-induced seizures"}, "[6]": {"system": "rat"}, "[7]": {"system": "schizophrenia", "conditions": "compared to placebo"}},
  "data": [
    {"smiles": "N[C@]1(C(=O)O)[C@H]2[C@@H](C[C@H]1OCc1ccc(Cl)c(Cl)c1)[C@]2(F)C(=O)O", "note": "[MGS0039]", "values": [
      {"measurement": "antidepressant-like effects", "setting": "[1]", "value": "dose-dependent antidepressant-like effects"}
    ]},
    {"smiles": "Cc1c(OCc2cccc(-c3ccc(C(=O)O)cc3)c2)cc2c(c1C)C(=O)C(C1CCCC1)C2", "note": "(stereo not shown) [biphenyl-indanone A]", "values": [
      {"measurement": "antipsychotic- and anxiolytic-like effects", "setting": "[2]", "value": "antipsychotic- and anxiolytic-like effects"}
    ]},
    {"smiles": "N[C@H](C(=O)O)c1ccc(C(=O)O)c(O)c1", "note": "[(S)-4-carboxy-3-hydroxyphenylglycine]", "values": [
      {"measurement": "protection against audiogenic seizures", "setting": "[3]", "value": "protects against audiogenic seizures"}
    ]},
    {"smiles": "N[C@@]1(C(=O)O)CC[C@H]2[C@H](C(=O)O)[C@H]21", "note": "[LY354740]", "values": [
      {"measurement": "effect on ketamine disruption of working memory", "setting": "[4]", "value": "attenuation of the disruptive effects of the NMDA glutamate receptor antagonist, ketamine, on working memory"},
      {"measurement": "effect on chemically induced seizures", "setting": "[5]", "value": "attenuates pentylenetetrazole- and picrotoxin-induced seizures"}
    ]},
    {"smiles": "N[C@@]1(C(=O)O)CO[C@H]2[C@H](C(=O)O)[C@H]21", "note": "[LY379268]", "values": [
      {"measurement": "effect on REM sleep and fast EEG", "setting": "[6]", "value": "suppresses rapid eye movement (REM) sleep and fast EEG"}
    ]},
    {"smiles": "CSCC[C@H](N)C(=O)N[C@@]1(C(=O)O)CS(=O)(=O)[C@H]2[C@H](C(=O)O)[C@H]21", "note": "[LY2140023]", "values": [
      {"measurement": "improvement in positive and negative symptoms of schizophrenia", "setting": "[7]", "value": "statistically significant improvements in both positive and negative symptoms of schizophrenia"}
    ]}
  ]
}
